Results on 2 compounds are retold here after PMC11550998, “Novel 5-HT7 receptor antagonists modulate intestinal immune responses and reduce severity of colitis” (American Journal of Physiology - Gastrointestinal and Liver …, 2024).

The test system of data set [1] is acute DSS-induced colitis. Nature of the data set: Acute DSS-induced colitis model. Format: in vivo, C57BL/6 mice. The text has this:
C57BL/6 (Taconic, Cambridge City, IN) for the DSS model of colitis, as well as C57BL/6 and Rag1^−/− mice (Jackson Laboratory, Bar Harbor, ME) for the T-cell transfer model, were kept in sterilized, filter-topped cages under specific pathogen-free conditions upon arrival and fed autoclaved food. Male mice aged 8–10 wk were used for all experiments. Mice were acclimatized for 7 days before the start of any experiments. All experiments were approved by the animal ethics committee of McMaster University and conducted under Canadian guidelines for animal research.
For induction of acute colitis, DSS (molecular mass 40 kDa; ICN; Biomedicals Incorporate, Solon, OH) was added to autoclaved drinking water at a final concentration of 4 or 5% wt/vol for 5 days. For the induction of chronic colitis, DSS was added to normal drinking water at a final concentration of 4% for 5 days, followed by 7 days of water. This cycle was repeated twice thereafter, with 2% DSS. Control mice received vehicle or normal drinking water.
For acute DSS-induced colitis, C576BL/6 mice were treated with MC-170073 (10 mg/kg of body wt) or vehicle (10% DMSO in normal saline) via intraperitoneal injection once daily for 6 days, starting 1 day before the beginning of DSS. In a separate experiment, C57BL/6 mice were orally administered with MC-230078 (10 mg/kg) or vehicle twice daily for 5 days, starting from the beginning of DSS. For chronic DSS-induced colitis, C57BL/6 mice were treated with MC-170073 (10 mg/kg ip) or vehicle once daily for 6 days, starting 1 day before the beginning of the third cycle. Last, for CD4^+CD45RB^high T cell-induced chronic colitis, reconstituted Rag1^−/− mice were orally administered MC-230078 (5 mg/kg or 10 mg/kg) or a vehicle twice daily for 10 days starting from week 6 post-reconstitution of T cells.
Disease activity index (DAI) is a combined score of weight loss, stool consistency, and fecal bleeding and was blindly assessed using a previously published scoring system ([19]). This scoring system was defined as follows: weight loss: 0 = no loss; 1 = 1–5%; 2 = 5–10%; 3 = 10–20%; 4 = 20%+; stool, 0 = normal; 2 = loose stool; 4 = diarrhea; and bleeding: 0 = no blood; 2 = hemoccult positive (Hemoccult II; Beckman Coulter, Fullerton, CA); and 4 = gross blood (blood around anus). DAI was measured across all days of DSS treatment. Macroscopic damage scores were blindly scored using a previously published scoring system for DSS-induced colitis ([19]).
Colonic myeloperoxidase (MPO) levels were measured following a published protocol ([19]). Briefly, colonic tissue samples were homogenized in ice-cold 50 mmol·L^−1 potassium phosphate buffer containing 0.5% hexadecyl trimethyl ammonium bromide (pH = 6.0) (Sigma). Homogenates were centrifuged, the supernatant was removed, and an aliquot was then added to a solution containing potassium phosphate buffer, O-dianisidine, and hydrogen peroxide (Sigma-Aldrich). The absorbance was measured at 450 nm by a spectrophotometer (model EL808, BioTek). MPO level was expressed in units per milligram of tissue, where 1 U is defined as the quantity of enzyme able to convert 1 μmol hydrogen peroxide to water per minute at room temperature.
Segments of the proximal colon were washed with PBS, fixed in 10% neutral-buffered formalin, washed with ethanol, and embedded in paraffin. Hematoxylin-eosin (H&E)-stained colonic tissue sections were scored using a previously published system ([19]): crypt architecture (normal = 0; severe crypt distortion with loss of entire crypts = 3), degree of inflammatory cell infiltration (normal = 0; dense inflammatory infiltrate = 3), muscle thickening (base of crypt sits on the muscularis mucosae = 0; marked muscle thickening present = 3), goblet cell depletion (absent = 0; present = 1), and crypt abscess (absent = 0; present = 1). A breakdown of scoring criteria can be seen in Supplemental Table S1. The histological damage score is the sum of each individual score. […]

The nature of data set [2]: Mouse in vivo pharmacokinetic studies. Further details: species or system C57BL/6 male mice. The conditions noted are these: for bioavailability / AUC / Cmax / Tmax / clearance / half-life: male; for bioavailability: C57BL/6, mouse, plasma, oral, read-out: %F (oral bioavailability); for AUC / Cmax / Tmax / clearance / half-life: C57BL/6, plasma. Here is the method:
Adult C57BL/6 male mice (2–4 mo old, body weight ranging from 20 to 25 g, Charles River Laboratories) were maintained under controlled temperature (23 ± 1°C) and lighting (lights on 6:00 AM–6:00 PM) with food and water provided ad libitum. Pharmacokinetic studies were performed either via intravenous bolus infusion or through oral gavage. Mice were administered each compound intravenously by tail vein injection (1 mg/kg) or orally through gavage (5 mg/kg). Serial blood samples were collected at 5, 15, and 30 min and 1, 2, 4, 8, and 24 h after intravenous administration, and at 15, 30 min, and 1, 2, 4, 8, and 24 h after oral gavage administration. All blood samples were centrifuged at 1,500 g for 5 min. Pharmacokinetic study procedures were approved by Temple University’s Institutional Animal Care and Usage Committee and were in accordance with National Institutes of Health (NIH) guidelines. For all in vivo efficacy studies, experiments were approved by the animal ethics committee of McMaster University and conducted under Canadian guidelines for animal research.
Plasma concentrations were determined using an LC-MS/MS method. Briefly, 100-µL acetonitrile with an internal standard solution (Diltiazem, 0.1 μg/mL) was added to 50-µL plasma or tissue homogenate. After being vortexed for 1 min, the mixture was centrifuged at 3,000 g for 5 min. LC-MS/MS analysis was carried out using a high-performance liquid chromatography system consisting of an Agilent 1100 system interfaced to an API4000 SCIEX triple-quadrupole tandem mass spectrometer (Applied Biosystems/MDS Sciex, Foster City, CA). MC-170073, MC-230078, MC-230079, and the internal standard were separated by using a Phenomenex (Torrance, CA) C18 column (2.0 × 50 mm). The mobile phase consisted of solvent A (0.1% formic acid in water) and solvent B (0.1% formic acid in acetonitrile). A linear gradient of solvent B from 5 to 95% was used. The detection and quantification of analytes were performed with the m/z transition 347/191 for MC-170073, MC-230078, and MC-230079, and m/z 415/178 for diltiazem.

Where [3] appears, read: 4% DSS 5 days, 10 mg/kg ip once daily 6 days.
The mark [4] stands for this setting: 4% DSS 5 days, 10 mg/kg ip once daily 6 days, vs vehicle-treated mice.
[5] abbreviates: 5 mg/kg, 5 mg/kg oral vs 1 mg/kg IV.
Where [6] appears, read: 5% DSS 5 days, 10 mg/kg orally twice daily 5 days.
Setting [7] is: 5% DSS, 10 mg/kg orally twice daily 5 days.
Where [8] appears, read: 5% DSS, 10 mg/kg orally twice daily, day 5 post-DSS vs vehicle.

Usually bioavailability stands for dose-corrected exposure relative to a reference, in per cent. The AUC is the area under the concentration-time curve, a measure of exposure. A high value points to more exposure. As usually defined, the Cmax is the maximum level reached in the sampled fluid or tissue. The Tmax is the time from dosing to the highest level. One may read the clearance as a measure of how efficiently the substance is removed, as volume per time. What is called half-life is how long it takes for the measured level to halve. Low values mean fast loss, high ones slow loss. As to `CCC1(CC)CC(CCN2CCN(c3ccc(O)cc3)CC2)OC1=O` (stereo not drawn) [MC-170073], in data set [1] (setting [3]), the “colonic IL-1β level” value is reported as “lower levels”, the “colonic IL-6 level” value was “lower levels”, the “colonic MPO level” value is listed as “lower levels” and the “colonic TNF-α level” value is “lower levels”. In addition, in data set [1] (setting [4]), the DAI scores entry is on record as “significantly lower”, the histological damage scores entry was “significantly less severe” and the macroscopic scores result is reported as “lower”. Further, in data set [2] (5 mg/kg oral vs 1 mg/kg IV), the “%F (oral bioavailability)” value came to 17.5%. In addition, the bioavailability in data set [2] (setting [5]) worked out at 17%. Also, in data set [2] (IV, 1 mg/kg), the AUC came out at 142 ng·h/mL, the peak level (Cmax) was 81 ng/mL, the time of peak concentration (Tmax) is 0.25 h and the clearance was 2.08 mL/min. This compound also showed a half-life in data set [2] (IV, 1 mg/kg) of 4.4 h. Also, in data set [2] (oral gavage, 5 mg/kg), the AUC stood at 124 ng·h/mL, the peak concentration (Cmax) was found to be 49 ng/mL, the Tmax was found to be 0.25 h and the half-life was 3.4 h. The compound further displayed a CL in data set [2] (oral gavage, 5 mg/kg) of 0.73 L/h.

For the compound `CCC1(CC)C[C@@H](CCN2CCN(c3ccc(O)cc3)CC2)OC1=O` [MC-230078], in data set [1] (setting [6]), the DAI entry is “significantly lower” and the “body weight change during DSS” value is given as “no significant difference”. Also, in data set [1] (setting [7]), the “colonic IL-1β level” value is “significantly lower” and the “colonic MPO level” value is “significantly lower”. In addition, in data set [1] (setting [8]), the histological scores result is on record as “significantly lower” and the macroscopic scores result is given as “significantly lower”. Further, the bioavailability in data set [2] (setting [5]) was determined as 13.7%. In addition, in data set [2] (IV, 1 mg/kg), the AUC came to 277 ng·h/mL, the Cmax worked out at 527 ng/mL, the Tmax came to 0.083 h and the clearance is 1.4 mL/min. This compound had a half-life in data set [2] (IV, 1 mg/kg) of 3.97 h. In data set [2] (oral gavage, 5 mg/kg), the AUC was 190 ng·h/mL, the Cmax worked out at 123 ng/mL, the Tmax worked out at 0.5 h and the half-life was 3.78 h. Moreover, the CL in data set [2] (oral gavage, 5 mg/kg) amounted to 0.511 L/h.
